Values of other authors as cited in patent publication US20090010894A1, “METHODS AND SYSTEMS FOR IDENTIFYING COMPOUNDS THAT MODULATE ALPHA-SYNUCLEIN AGGREGATION” (The parkinson's Institute, priority 2005, published 2009).

Experiments:
[1] = system: transgenic C. elegans expressing A53T, E46K, or A30P human α-synuclein; conditions: exogenous dopamine; transgenic worms expressing mutant human α-synuclein
α-synuclein = α-synuclein (Homo sapiens, UniProt P37840); conditions: aggregated α-synuclein contacted with agent in vitro

SMILES | reversal of failure in food-sensing behavior [1] | promotes disaggregation of α-synuclein (α-synuclein)
NCCc1ccc(O)c(O)c1 [dopamine] | reversed these effects | 
CO[C@H]1/C=C/O[C@@]2(C)Oc3c(C)c(O)c4c(O)c(c(/C=N/N5CCN(C)CC5)c(O)c4c3C2=O)NC(=O)/C(C)=C\C=C\[C@H](C)[C@H](O)[C@@H](C)[C@@H](O)[C@@H](C)[C@H](OC(C)=O)[C@@H]1C [rifampin] |  | shown to have such an effect
CO[C@H]1/C=C/O[C@@]2(C)Oc3c(C)c(O)c4c(O)c(cc(O)c4c3C2=O)NC(=O)/C(C)=C\C=C\[C@H](C)[C@H](O)[C@@H](C)[C@@H](O)[C@@H](C)[C@H](OC(C)=O)[C@@H]1C [rifamycin] |  | shown to have such an effect
